From patent US20090075916A1, “Use of Macrolide Derivatives for Treating Acne” (priority 2005, published 2009) come the findings set out here.

≈ marks a conversion by molar mass, not a printed value.

Common to all, as to assay: MIC, agar dilution (NCCLS M11-A5), anaerobic
Assay [1] has as its system sensitive P. acnes isolates (Propionibacterium acnes 6523, ATCC 6919, clinical isolate, I and II). It is filed as cell-based. The note with it: Cutibacterium acnes, sensitive P. acnes isolates: 6523, ATCC 6919, clinical isolate, 48 hours anaerobic.
For assay [2], the system named is resistant P. acnes (NDDR I and II) isolates. Type of assay: cell-based, Propionibacterium acnes. Particulars: Cutibacterium acnes.
Another assay has as its system All the P. acnes isolate. Type of assay: cell-based, Propionibacterium acnes.

Consider `CC[C@H]1OC(=O)[C@H](C)[C@@H](O[C@H]2C[C@@](C)(OC)[C@@H](O)[C@H](C)O2)[C@H](C)[C@@H](O[C@@H]2O[C@H](C)C[C@H](N(C)C)[C@H]2O)[C@](C)(O)C[C@@H](C)CN(C)[C@H](C)[C@@H](O)[C@]1(C)O` [Azithromycin], for which the MIC (commonly the lowest concentration that inhibits growth of the organism) in assay [1] is 0.06 to 0.5 µg/mL (≈ 0.0801 to 0.668 µM); in assay [2] it was more than 16 µg/mL. In the same order, the values of `CC[C@H]1OC(=O)[C@H](C)[C@@H](O[C@H]2C[C@@](C)(OC)[C@@H](O)[C@H](C)O2)[C@H](C)[C@@H](O[C@@H]2O[C@H](C)C[C@H](N(C)C)[C@H]2O)[C@](C)(OC)C[C@@H](C)C(=O)[C@H](C)[C@@H](O)[C@]1(C)O` [Clarithromycin] are 0.06 to 0.5 µg/mL (≈ 0.0802 to 0.668 µM) and more than 16 µg/mL. In the same order, the values of `CCC[C@@H]1C[C@@H](C(=O)N[C@@H]([C@H]2O[C@H](SC)[C@H](O)[C@@H](O)[C@H]2O)[C@H](C)Cl)N(C)C1` [Clindamycin] are 0.25 µg/mL (≈ 0.588 µM) and 16 µg/mL (≈ 37.6 µM).

Consider `CC[C@H]1OC(=O)[C@H](C)[C@@H](O[C@H]2C[C@@](C)(OC)[C@@H](O)[C@H](C)O2)[C@H](C)[C@@H](O[C@@H]2O[C@H](C)C[C@H](N(C)C)[C@H]2O)[C@](C)(O)C[C@@H](C)C(=O)[C@H](C)[C@@H](O)[C@]1(C)O` [Erythromycin], for which the MIC in assay [1] is 0.06 to 0.5 µg/mL (≈ 0.0818 to 0.681 µM); in assay [2], more than 16 µg/mL. `CC[C@H]1OC(=O)[C@H](C)C(=O)[C@H](C)[C@@H](O[C@@H]2O[C@H](C)C[C@H](N(C)C)[C@H]2O)[C@](C)(OC)C[C@@H](C)C(=O)[C@H](C)[C@H]2N(CCCCn3cnc(-c4cccnc4)c3)C(=O)O[C@]12C` [Telithromycin] yielded a minimal inhibitory concentration (MIC) in assay [2] of 2 µg/mL (≈ 2.46 µM). For `Cc1ncc([N+](=O)[O-])n1CCO` [metronidazole], the “susceptibility of P. acnes isolates (in words)” value in the assay with All the P. acnes isolate was “resistance”.
